Molecular target: T1, curli (native curli fibers; monomeric unit CsgA) (Escherichia coli, UniProt P28307)
T1 construct: native curli amyloid fibers isolated from E. coli MC4100; mature secreted CsgA (signal peptide removed); 13 kDa monomeric unit; fiber polymer
Assay: depletion (centrifugation) assay, absorbance of free dye at […] nm, saturation fit
Assay type: binding

T1 sequence (P28307 21-151): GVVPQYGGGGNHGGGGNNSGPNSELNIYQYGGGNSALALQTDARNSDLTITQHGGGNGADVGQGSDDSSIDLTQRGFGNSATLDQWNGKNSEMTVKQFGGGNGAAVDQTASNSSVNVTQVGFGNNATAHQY

SMILES: O=C(O)c1cc(/C=C/c2ccc(/C=C/c3ccc(O)c(C(=O)O)c3)c(F)c2)ccc1O [FSB, (E,E)-1-fluoro-2,5-bis(3-hydroxycarbonyl-4-hydroxy) styrylbenzene]
- Kd: 7.9 µM

Reference: PMC6117054, “The Congo red derivative FSB binds to curli amyloid fibers and specifically stains curliated E. coli” (PLoS ONE, 2018)
